The record followed here is PMC11280390, “Synthesis of Nitrostyrylthiazolidine-2,4-dione Derivatives Displaying Antileishmanial Potential” (Pharmaceuticals, 2024).

Data set [1] deals with Leishmania infantum promastigotes. The data set can be described thus: In vitro antileishmanial activity on L. infantum promastigotes (MTT, 72 h). The format is cell-based. The note with it: Leishmania infantum, L. infantum promastigotes, MTT, read-out: Anti-L. infantum Promastigote Activity EC50. On the procedure:
Luciferase-expressing Leishmania infantum was kindly provided by Professor Thierry Lang of the Institut Pasteur. L. infantum promastigotes were routinely grown at 27 °C in Schneider’s Drosophila Medium (Dominique […] SAS, Bernolsheim, France) supplemented with 10% fetal calf serum, 2% human urine, sodium pyruvate 0.04 mM, hemin 0.1 µg/mL, HEPES 5 mM, streptomycin 100 µg/mL, penicillin 100 U/mL, L-glutamine 2 mM (culture medium). The in vitro evaluation of the antileishmanial activity of the tested compound on L. infantum promastigotes forms was assessed according to the Mosmann protocol with slight modifications. […] Appropriate controls treated with DMSO, Miltefosine, Amphotericin B and Fexinidazole sulfone (reference drugs purchased from Sigma-Aldrich, Saint-Louis, MO, USA) were added to each set of experiments. The plates were incubated at 27 °C for 72 h, Then, each plate-well was microscope-analyzed to detect any precipitate formation. Afterward, 20 µL of MTT (3-(4,5-dimethylthiazol-2-yl)-2,5-diphenyltetrazolium bromide) (Sigma-Aldrich, Saint-Louis, MI, USA) solution (5 mg/mL in PBS) were added to each well and incubated at 27 °C for 4 h. The reaction was then stopped by the addition of 100 µL of 10% sodium dodecyl sulfate—50% isopropanol. Plates were shaken vigorously at 400 rpm for 10 min. […] EC50 values represent the mean value calculated from at least three separate experiments.

Data set [2] is described as follows: In vitro cytotoxicity on the human hepatic HepG2 cell line (MTT, 72 h). The conditions noted are these: human, HepG2 cells (hepatocarcinoma cell line, ATCC HB-8065), HepG2 Cytotoxicity CC50, HepG2, 72 h, MTT. Here is the method:
(§1) HepG2 cell line (hepatocarcinoma cell line purchased from ATCC, ref HB-8065) was maintained at 37 °C, 5% CO2 with 90% humidity in MEM supplemented with 10% fetal bovine serum, 1% L-glutamine (200 mM) and penicillin (100 U/mL)/streptomycin ([…]) (complete MEM medium). The tested molecules’ cytotoxicity was assessed according to the method of Mosmann with slight modifications. Briefly, 5 × 10^3 cells in 100 μL of complete medium were inoculated into each well of 96-well plates and incubated at 37 °C in a humidified 5% CO2. After 24 h incubation, 100 μL of medium with various product concentrations dissolved in DMSO (final concentration less than 0.5% v/v) were added and the plates were incubated for 72 h at 37 °C. Triplicate assays were performed for each sample. Each plate well was then microscope-examined to detect possible precipitate formation before the medium was aspirated from the wells. Then, 100 μL of MTT (3-(4,5-dimethyl-2-thiazolyl)-2,5-diphenyl-2H-tetrazolium bromide) solution (0.5 mg/mL in medium without FCS) were then added to each well. Cells were incubated for 2 h at 37 °C, following which the MTT solution was removed and DMSO (100 μL) was added to dissolve the resulting blue formazan crystals. Plates were shaken vigorously (700 rpm) for 10 min. The absorbance was measured at 570 nm with 630 nm as reference wavelength using a TECAN Infinite F-200 spectrophotometer (Tecan Trading AG, Männedorf, Switzerland). DMSO was used as blank and doxorubicin (purchased from Sigma Aldrich, Saint Louis, MI, USA) as positive control. Cell viability was calculated as a percentage of control (cells incubated without compound). […] CC50 values represent the mean value calculated from three separate experiments.

The next data set has as its system HepG2 cell line. The data set is described as above. The note with it: for Selectivity INDEX (SI = CC50/EC50): HepG2 CC50 / L. infantum promastigote EC50. On the procedure: as §1
Data set [3] is described as follows: In vitro cytotoxicity on the human monocyte THP-1 cell line (MTT, 72 h). Type of data set: cell-based. The conditions noted are these: human; THP-1, 72 h, MTT. Here is the method:
(§2) The undifferentiated THP1 human monocyte cells (acute monocytic leukemia cell line purchased from ATCC, ref TIB-202) were routinely grown in RPMI 1640 medium (Life Technologies, Saint-Aubin, France) supplemented with 10% FCS (Life Technologies, Saint-Aubin, France), 100 U/mL penicillin, 100 µg/mL streptomycin and 2 mM L-glutamine at 37 °C, 5% CO2. The culture was maintained between 3.10^5 and 8.10^5 cells/mL. […] Wells were washed with RPMI and 100 µL of fresh complete medium was added. […] Then, 100 µL of MTT solution (0.5 mg/mL in medium) was added to each well. Cells were incubated for 2 h at 37 °C. […] Plates were shaken vigorously (700 rpm) for 10 min. […] (Palo Alto, CA, USA).

In a further data set the test system is THP-1 cell line. Described as above. The conditions noted are these: THP-1 CC50 / L. infantum promastigote EC50. The format is cell-based. On the procedure:
as §2

Data set [4] in a line: Lipophilicity by Chromatographic Hydrophobicity Index (CHI). The format is physicochemical. The conditions noted are these: pH 7.4, CHI; read-out: CHI logD7.4. Here is the method:
B: acetonitrile, at a flow rate of 0.300 mL/min and 0.5-µL injections. The validity of the CHI versus retention time was established on a reference mixture containing theophylline, phenyltetrazole, benzimidazole, acetophenone, propiophenone, butyrophenone and valerophenone.

Data set [5] in a line: Aqueous solubility in PBS by shake-flask method. The format is physicochemical. The note with it: 25 °C, pH 7.4, aqueous buffer, thermodynamic from solid, PBS pH 7.4, 25 °C. Here is the method: Briefly, an excess of compound (approx. 2 mg) was stirred in PBS (0.5 mL, 0.15 M, pH 7.4) at 25 °C for 72 h. A 100 µL sample was drawn, any excess material removed by centrifugation, and diluted tenfold with methanol/water 1:1 before HPLC-UV quantification using a pre-established calibration curve (PLRP-S column (Agilent), 3 µm particle size, 100 A porosity, 50 × 2.1 mm internal dimensions). Eluent: isocratic acetonitrile/water/formic acid 80:20:0.1, 0.4 mL/min, detection at 320 nm, 2-µL injections).

Data set [6] deals with wild-type L. donovani (LdBOB) promastigotes. The data set can be described thus: Antileishmanial activity against wild-type L. donovani promastigotes. Type of data set: cell-based. The conditions noted are these: Leishmania donovani, read-out: EC50 Values, WT. On the procedure:
(§3) EC50 values were determined as previously described. Nifurtimox was used as a positive control for activation via NTR1 [38] while delamanid was used as a positive control for activation via NTR2 [39].

Data set [7] has as its system L. donovani promastigotes overexpressing NTR1. The data set can be described thus: microbe, parasite or virus in culture. The format is cell-based. The note with it: Leishmania donovani, read-out: EC50 Values, NTR1 OE. Here is the method:
as §3

For data set [8], the system named is L. donovani promastigotes overexpressing NTR2. Put plainly: microbe, parasite or virus in culture. The format is cell-based. The note with it: Leishmania donovani, read-out: EC50 Values, NTR2 OE. Here is the method:
as §3

≈ marks a conversion by molar mass, not a printed value. Where “and” joins values, the source holds several entries; their conditions need not be identical. Equal entries are not always repeated. Where two headings read alike, the source gives them in different places.

As for `Cn1c([N+](=O)[O-])cnc1COc1ccc(S(C)(=O)=O)cc1` [Fexinidazole sulfone, reference compound], the concentration for a half-maximal effect (EC50) (usually the midpoint of the concentration-response curve) in data set [1] came to 3.1 ± 0.7 µM. Besides, the CC50 at 72 h in [2] and in data set [3] was above 200 µM each time. In addition, the “Selectivity INDEX (SI = CC50/EC50)” value in the data set with HepG2 cell line was above 64.5.
`C[C@@H]1[C@H](O)[C@@H](C)/C=C/C=C/C=C/C=C/C=C/C=C/C=C/[C@H](O[C@@H]2O[C@H](C)[C@@H](O)[C@H](N)[C@@H]2O)C[C@@H]2O[C@](O)(C[C@@H](O)C[C@@H](O)[C@H](O)CC[C@@H](O)C[C@@H](O)CC(=O)O[C@H]1C)C[C@H](O)[C@H]2C(=O)O` [Amphotericin B, reference compound]: in [1], the EC50 worked out at 0.06 ± 0.02 µM. The CC50 (as a rule, the concentration giving 50% cytotoxicity) at 72 h in [3] was 17.6 ± 3 µM.
Take `N#CCN1C(=O)S/C(=C\c2cccc([N+](=O)[O-])c2)C1=O` [Compound 14c, (Z)-2-(5-(3-Nitrobenzylidene)thiazolidine-2,4-dion-3-yl)acetonitrile]: the melting point (as a rule, the temperature of the solid-liquid transition) is 173 to 175 °C. The concentration for a half-maximal effect (EC50) in data set [1] is 7 ± 2.96 µM. It took 101 µM to reach half-maximal cytotoxicity in [2] (CC50 at 72 h). The “Selectivity INDEX (SI = CC50/EC50)” value in the data set with HepG2 cell line was 14 and 14.4. In addition, the half-maximal cytotoxic concentration (CC50) in the data set on HepG2 cell line (read-out: HepG2 Cytotoxicity CC50, HepG2, 72 h, MTT) was 101 ± 19.3 µM. It took 121 ± 9 µM to reach half-maximal cytotoxicity in data set [3] (CC50 at 72 h). Also, the “Selectivity index (THP-1)” value in the data set on THP-1 cell line was 17. Besides, the chromatographic logD in [4] was found to be 2.85. In addition, the solubility (in general, the dissolved amount per volume that the medium holds) at 72 h in data set [5] (read-out: PBS Solubility (log S) (converted)) was 15.8 µM (≈ 4.58 µg/mL). Also, the solubility at 72 h in data set [5] (read-out: PBS solubility) came out at 16 µM (≈ 4.63 µg/mL). Moreover, in data set [6], the EC50 came to 22.1 µM. Moreover, the half-maximal effective concentration (EC50) in [7] worked out at 3.78 ± 0.313 µM. In data set [8], the EC50 turned out to be 18.5 µM.
As for `CCCCCCCCCCCCCCCCOP(=O)([O-])OCC[N+](C)(C)C` [Miltefosine, reference compound], the EC50 in [1] was found to be 3.3 ± 0.8 µM. The molecule further registered a CC50 at 72 h in [3] of 30 ± 4 µM.
In the case of `CC1CS(=O)(=O)CCN1/N=C/c1ccc([N+](=O)[O-])o1` (stereo not drawn) [Nifurtimox], the EC50 was found to be 3.11 ± 0.223 µM in [6], 0.144 ± 0.01 µM in [7] and 0.163 ± 0.011 µM in data set [8].
For `C[C@]1(COc2ccc(N3CCC(Oc4ccc(OC(F)(F)F)cc4)CC3)cc2)Cn2cc([N+](=O)[O-])nc2O1` [Delamanid] the same measures were 0.003 ± 0.0001 µM, 0.002 ± 0.0003 µM and 0.0003 ± 1e-06 µM.
